Measured values from patent US7368429B2, “Peptide specificity of anti-myelin basic protein and the administration of myelin basic protein peptides to multiple sclerosis patients” (The Governors of the University of Alberta, priority 1991, dated 2008).
Where no end group is shown, it is not given here.

Columns and labels:
[1] = test system: anti-MBP purified from CSF of MS patients; experiment: In vitro neutralization of purified anti-MBP (liquid phase assay, then solid phase radioimmunoassay); format: binding, human; conditions: for neutralization of purified anti-MBP: pooled anti-MBP from 10 MS patients, FIG. 2; for REACTIVITY WITH ANTI-MBP: purified anti-MBP, h-MBP 0-1000 ng, peptides 0-10,000 ng, 1.5 hours incubation
Text: Purified MBP was coupled to CNBr-activated Sepharose 4B (Pharmacia™) according to the manufacturer's instructions. Purified CSF IgG containing increased anti-MBP levels from 35 patients with acute MS relapses was used to isolate anti-MBP by MBP-Sepharose affinity chromatography (Warren, K. G. and Catz, I., J Neurol Sci 103:90-96, 1991). Purified anti-MBP samples were compared with the initial IgG source by poly-acrylamide gel electrophoresis. When purified anti-MBP samples were absorbed to zero with MBP, the post-absorption supernatants contained no residual IgG indicating the purity of anti-MBP.
Constant amounts of anti-MBP (15 radioactivity binding units corresponding to 100 for scale expansion purposes=% 0) were incubated with increasing amounts of h-MBP (0-1000 ng) or individual peptides of MBP (0-10,000 ng) in a liquid phase assay and after 1.5 hours incubation, free anti-MBP levels were determined in all mixtures. Anti-MBP isolated from 7 individual MS patients or pooled anti-MBP from 10 different MS patients were used in neutralization experiments. […] Another mouse monoclonal antibody to epitope 45-50 was used as negative antibody control.
(§1) Anti-MBP levels were determined by a solid phase radioimmunoassay with human MBP (Warren, K. G. and Catz, I., Ann Neurol 209:20-25, 1986; Warren, K. G. and Catz, I., Ann Neurol 21:183-187, 1987; and Warren, K. G. and Catz, I., J Neurol Sci 91:143-151, 1989). Free anti-MBP levels were measured in all fractions from affinity chromatography and in all neutralization mixtures. All individual samples were run in quadruplicate using the same iodinated material in order to minimize between-assay variability.

MAb to peptide MBP64-78 = experiment: Positive antibody control of neutralization assay; format: binding
Experimental: (§2) Constant amounts of anti-MBP (15 radioactivity binding units corresponding to 100 for scale expansion purposes=% 0) were incubated with increasing amounts of h-MBP (0-1000 ng) or individual peptides of MBP (0-10,000 ng) in a liquid phase assay and after 1.5 hours incubation, free anti-MBP levels were determined in all mixtures. Anti-MBP isolated from 7 individual MS patients or pooled anti-MBP from 10 different MS patients were used in neutralization experiments. […] One monoclonal antibody (MAb) to peptide MBP64-78 and a polyclonal rabbit antiserum to peptide MBP1-8 were used as positive antibody controls (Groome, N., Harland, J., and Dawkes, A., Neurochem Int 7:309-317, 1985; Barry, R., Payton, M., and Groome, N., Neurochem Int 2:291-300, 1991). Another mouse monoclonal antibody to epitope 45-50 was used as negative antibody control.
as §1

[2] = test system: mouse monoclonal antibody to epitope 45-50; experiment: Negative antibody control of neutralization assay; format: binding
Experimental: as §2, §1

[3] = test system: F and B anti-MBP purified from MS brain tissue; experiment: Competitive inhibition assay with MBP decapeptides (epitope localization); format: binding, human; conditions: percent inhibition = 100 - radioactivity units, FIG. 10
Experimental: Prior to being assayed all CSF and/or tissue samples were diluted to a final IgG concentration of 0.010 g/l. F anti-MBP was detected directly in CSF or tissue extract while B levels of antibody were determined following acid hydrolysis of immune complexes with glycine HCl buffer pH 2.2. Non-specific binding was performed for each sample in uncoated wells. For epitope localization, synthetic peptides were firstly reacted with purified antibody in a liquid phase competitive assay and then anti-MBP was determined by radioimmunoassay in all resulting supernatants. Results of the combined competitive binding assay and radioimmunoassay were expressed as percent inhibition of synthetic peptide defined as 100—radioactivity units. Samples were done in 10 replicates and counted for 10 minutes each in a LKB1275 Minigamma counter. A pool of tissue-purified anti-MBP was used at 5 pre-established dilutions as positive controls. Pooled CSF from patients with non-neurological diseases was used as negative controls. Within assay reproducibility was between 3 and 5% and between assay variation was less than 7%.
The peptide(s) producing maximum inhibition were considered to be most highly associated with the antibody binding site.

[4] = test system: polyclonal rabbit antiserum to peptide MBP1-8; experiment: Positive antibody control of neutralization assay; format: binding
Experimental: as §2, §1

ARTAHYGSLPQKSHG [MBP64-78]
neutralization of purified anti-MBP [1]: partially neutralized
REACTIVITY WITH ANTI-MBP [1]: +
inhibition of MAb to peptide MBP64-78 (MAb to peptide MBP64-78): inhibited

MBP: Native human myelin basic protein isolated from non-MS brain tissue, 18.5 KD (ASQKRPSQRHGSKYLATASTMDHARHGFLPRHRDTG)
neutralization of anti-MBP purified from individual patients ([1]; anti-MBP from 7 individual MS patients, FIG. 3): completely neutralized
neutralization of purified anti-MBP [1]: completely neutralized
REACTIVITY WITH ANTI-MBP [1]: ++
reaction with MAb to MBP 45-50 [2]: did not react
percent inhibition of F and B anti-MBP [3]: 100%

MBP1-8: synthetic peptide of human MBP sequence 1-8 with unnatural cysteine residue (ASQKRPSQC)
REACTIVITY WITH ANTI-MBP [1]: −
inhibition of antibody to peptide MBP1-8 [4]: inhibited
